Data from patent publication US11807644B2 (PMV Pharmaceuticals, Inc., priority 2020, dated 2023).

molecular target: T1, recombinant His-tag Y220C p53 DBD protein (Homo sapiens, UniProt P04637, Y220C); experiment: In vitro DNA binding activity assay (TR-FRET): binding of His-tag Y220C p53 DBD to biotin-labeled consensus DNA; type: biochemical; details: SC150 = concentration to increase DNA binding by […], His-tag Y220C p53 DBD, biotin-labeled consensus DNA
T1 construct: recombinant His-tag Y220C p53 DBD protein (amino acids #˜94-312)

Row | SMILES | Y220C SC150 (μM)
1 | COC(C)(C)c1ccc(C(=O)NCc2nc(-c3cc4c(N[C@H]5CCNC[C@H]5F)cccc4n3CC(F)(F)F)no2)s1 [Compound 479B, N-{[3-(4-{[(3R,4S)-3-fluoropiperidin-4-yl]amino}-1-(2,2,2-trifluoroethyl)-1H-indol-2-yl)-1,2,4-oxadiazol-5-yl]methyl}-5-(2-methoxypropan-2-yl)thiophene-2-carboxamide] | * (* = 0 μM ≤ SC150 < 0.1 μM)
2 | COC(C)(C)c1ccc(C(=O)NCc2nc(-c3cc4c(N[C@@H]5CCNC[C@@H]5F)cccc4n3CC(F)(F)F)no2)s1 [Compound 480B] | * (* = 0 μM ≤ SC150 < 0.1 μM)
3 | CCOCC1(n2ccc(C(=O)NCc3nc(-c4cc5c(N[C@@H]6CCN(C)C[C@@H]6F)cccc5n4CC(F)(F)F)no3)c2)CC1 [Compound 481B, 1-[1-(ethoxymethyl)cyclopropyl]-N-{[3-(4-{[(3S,4R)-3-fluoro-1-methylpiperidin-4-yl]amino}-1-(2,2,2-trifluoroethyl)-1H-indol-2-yl)-1,2,4-oxadiazol-5-yl]methyl}-1H-pyrrole-3-carboxamide] | * (* = 0 μM ≤ SC150 < 0.1 μM)
4 | CN(C)CC1(n2ccc(C(=O)NCc3nc(-c4cc5c(N[C@@H]6CCN(C)C[C@@H]6F)cccc5n4CC(F)(F)F)no3)c2)CC1 [Compound 482B, 1-{1-[(dimethylamino)methyl]cyclopropyl}-N-{[3-(4-{[(3S,4R)-3-fluoro-1-methylpiperidin-4-yl]amino}-1-(2,2,2-trifluoroethyl)-1H-indol-2-yl)-1,2,4-oxadiazol-5-yl]methyl}-1H-pyrrole-3-carboxamide] | * (* = 0 μM ≤ SC150 < 0.1 μM)
5 | COCC1(c2ccc(C(=O)NCc3nc(-c4cc5c(N[C@@H]6CCN(C)C[C@@H]6F)cccc5n4CC(F)(F)F)no3)s2)CC1 [Compound 483B, N-{[3-(4-{[(3S,4R)-3-fluoro-1-methylpiperidin-4-yl]amino}-1-(2,2,2-trifluoroethyl)-1H-indol-2-yl)-1,2,4-oxadiazol-5-yl]methyl}-5-[1-(methoxymethyl)cyclopropyl]thiophene-2-carboxamide] | * (* = 0 μM ≤ SC150 < 0.1 μM)
6 | CN1CC[C@@H](Nc2cccc3c2cc(-c2noc(CNC(=O)c4c[nH]c(C(C)(C)C)c4)n2)n3CC(F)(F)F)[C@@H](F)C1 [Compound 484B, 5-tert-butyl-N-{[3-(4-{1[(3S,4R)-3-fluoro-1-methylpiperidin-4-yl]amino}-1-(2,2,2-trifluoroethyl)-1H-indol-2-yl)-1,2,4-oxadiazol-5-yl]methyl}-1H-pyrrole-3-carboxamide] | * (* = 0 μM ≤ SC150 < 0.1 μM)
7 | COCC(C)(C)c1cc(C(=O)NCc2nc(-c3cc4c(N[C@@H]5CCN(C)C[C@@H]5F)cccc4n3CC(F)(F)F)no2)cs1 [Compound 485B, N-{[3-(4-{1[(3S,4R)-3-fluoro-1-methylpiperidin-4-yl]amino}-1-(2,2,2-trifluoroethyl)-1H-indol-2-yl)-1,2,4-oxadiazol-5-yl]methyl}-5-(1-methoxy-2-methylpropan-2-yl)thiophene-3-carboxamide] | * (* = 0 μM ≤ SC150 < 0.1 μM)
8 | CN1CC[C@@H](Nc2cccc3c2cc(-c2noc(CNC(=O)c4ccc(C5(CO)CC5)s4)n2)n3CC(F)(F)F)[C@@H](F)C1 [Compound 486B, N-{[3-(4-{[(3S,4R)-3-fluoro-1-methylpiperidin-4-yl]amino}-1-(2,2,2-trifluoroethyl)-1H-indol-2-yl)-1,2,4-oxadiazol-5-yl]methyl}-5-[1-(hydroxymethyl)cyclopropyl]thiophene-2-carboxamide] | * (* = 0 μM ≤ SC150 < 0.1 μM)
9 | CN1CC[C@@H](Nc2cccc3c2cc(-c2noc(CNC(=O)c4csc(C5(CO)CC5)c4)n2)n3CC(F)(F)F)[C@@H](F)C1 [Compound 487B, N-{[3-(4-{[(3S,4R)-3-fluoro-1-methylpiperidin-4-yl]amino}-1-(2,2,2-trifluoroethyl)-1H-indol-2-yl)-1,2,4-oxadiazol-5-yl]methyl}-5-[1-(hydroxymethyl)cyclopropyl]thiophene-3-carboxamide] | * (* = 0 μM ≤ SC150 < 0.1 μM)
10 | COCC1(c2cc(C(=O)NCc3nc(-c4cc5c(N[C@@H]6CCN(C)C[C@@H]6F)cccc5n4CC(F)(F)F)no3)cs2)CC1 [Compound 488B, N-{[3-(4-{[(3S,4R)-3-fluoro-1-methylpiperidin-4-yl]amino}-1-(2,2,2-trifluoroethyl)-1H-indol-2-yl)-1,2,4-oxadiazol-5-yl]methyl}-5-[1-(methoxymethyl)cyclopropyl]thiophene-3-carboxamide] | * (* = 0 μM ≤ SC150 < 0.1 μM)
11 | COC(C)(C)c1cc(C(=O)NCc2nc(-c3cc4c(N[C@@H]5CCNC[C@@H]5F)cccc4n3CC(F)(F)F)no2)cs1 [Compound 489B, N-{[3-(4-{[(3S,4R)-3-fluoropiperidin-4-yl]amino}-1-(2,2,2-trifluoroethyl)-1H-indol-2-yl)-1,2,4-oxadiazol-5-yl]methyl}-5-(2-methoxypropan-2-yl)thiophene-3-carboxamide] | * (* = 0 μM ≤ SC150 < 0.1 μM)
12 | COC(C)(C)c1cc(C(=O)NCc2nc(-c3cc4c(N[C@H]5CCNC[C@H]5F)cccc4n3CC(F)(F)F)no2)cs1 [Compound 490B, N-{[3-(4-{[(3R,4S)-3-fluoropiperidin-4-yl]amino}-1-(2,2,2-trifluoroethyl)-1H-indol-2-yl)-1,2,4-oxadiazol-5-yl]methyl}-5-(2-methoxypropan-2-yl)thiophene-3-carboxamide] | * (* = 0 μM ≤ SC150 < 0.1 μM)
13 | CC(C)(C)n1ccc(C(=O)NCc2nc(-c3cc4c(N[C@H]5CCOC[C@H]5F)cccc4n3CC(F)(F)F)no2)c1 [Compound 492B, 1-tert-butyl-N-{[3-(4-{[(3S,4S)-3-fluorooxan-4-yl]amino}-1-(2,2,2-trifluoroethyl)-1H-indol-2-yl)-1,2,4-oxadiazol-5-yl]methyl}-1H-pyrrole-3-carboxamide] | * (* = 0 μM ≤ SC150 < 0.1 μM)
14 | CC(C)(C)n1ccc(C(=O)NCc2nc(-c3cc4c(N[C@@H]5CCOC[C@@H]5F)cccc4n3CC(F)(F)F)no2)c1 [Compound 493B, 1-tert-butyl-N-{[3-(4-{[(3R,4R)-3-fluorooxan-4-yl]amino}-1-(2,2,2-trifluoroethyl)-1H-indol-2-yl)-1,2,4-oxadiazol-5-yl]methyl}-1H-pyrrole-3-carboxamide] | * (* = 0 μM ≤ SC150 < 0.1 μM)
15 | COCC1(n2ccc(C(=O)NCc3nc(-c4cc5c(N[C@@H]6CCOC[C@@H]6F)cccc5n4CC(F)(F)F)no3)c2)CC1 [Compound 495B, N-{[3-(4-{[(3R,4R)-3-fluorooxan-4-yl]amino}-1-(2,2,2-trifluoroethyl)-1H-indol-2-yl)-1,2,4-oxadiazol-5-yl]methyl}-1-[1-(methoxymethyl)cyclopropyl]-1H-pyrrole-3-carboxamide] | * (* = 0 μM ≤ SC150 < 0.1 μM)
16 | COCC1(n2ccc(C(=O)NCc3nc(-c4cc5c(N[C@H]6CCOC[C@H]6F)cccc5n4CC(F)(F)F)no3)c2)CC1 [Compound 496B, N-{[3-(4-{[(3S,4S)-3-fluorooxan-4-yl]amino}-1-(2,2,2-trifluoroethyl)-1H-indol-2-yl)-1,2,4-oxadiazol-5-yl]methyl}-1-[1-(methoxymethyl)cyclopropyl]-1H-pyrrole-3-carboxamide] | * (* = 0 μM ≤ SC150 < 0.1 μM)
17 | CC(C)(C)n1cc(C(=O)NCc2nc(-c3cc4c(N[C@@H]5CCOC[C@@H]5F)cccc4n3CC(F)(F)F)no2)cn1 [Compound 497B, 1-tert-butyl-N-{[3-(4-{[(3R,4R)-3-fluorooxan-4-yl]amino}-1-(2,2,2-trifluoroethyl)-1H-indol-2-yl)-1,2,4-oxadiazol-5-yl]methyl}-1H-pyrazole-4-carboxamide] | * (* = 0 μM ≤ SC150 < 0.1 μM)
18 | CC(C)(C)n1cc(C(=O)NCc2nc(-c3cc4c(N[C@H]5CCOC[C@H]5F)cccc4n3CC(F)(F)F)no2)cn1 [Compound 498B, 1-tert-butyl-N-{[3-(4-{[(3S,4S)-3-fluorooxan-4-yl]amino}-1-(2,2,2-trifluoroethyl)-1H-indol-2-yl)-1,2,4-oxadiazol-5-yl]methyl}-1H-pyrazole-4-carboxamide] | * (* = 0 μM ≤ SC150 < 0.1 μM)
19 | CN1CC[C@@H](Nc2cccc3c2cc(-c2noc(CNC(=O)c4ccc(C(C)(C)C)nc4)n2)n3CC(F)(F)F)[C@@H](F)C1 [Compound 501B, 6-tert-butyl-N-{[3-(4-{[(3S,4R)-3-fluoro-1-methylpiperidin-4-yl]amino}-1-(2,2,2-trifluoroethyl)-1H-indol-2-yl)-1,2,4-oxadiazol-5-yl]methyl}pyridine-3-carboxamide] | * (* = 0 μM ≤ SC150 < 0.1 μM)
20 | CC(C)(C)n1ccc(C(=O)NCc2nc(-c3cc4c(N[C@@H]5CCNC[C@@H]5F)cccc4n3CC(F)(F)F)no2)c1 [Compound 502B, 1-tert-butyl-N-{[3-(4-{[(3S,4R)-3-fluoropiperidin-4-yl]amino}-1-(2,2,2-trifluoroethyl)-1H-indol-2-yl)-1,2,4-oxadiazol-5-yl]methyl}-1H-pyrrole-3-carboxamide] | * (* = 0 μM ≤ SC150 < 0.1 μM)
21 | COCC1(c2ccc(C(=O)NCc3nc(-c4cc5c(N[C@@H]6CCNC[C@@H]6F)cccc5n4CC(F)(F)F)no3)s2)CC1 [Compound 503B, N-{[3-(4-{[(3S,4R)-3-fluoropiperidin-4-yl]amino}-1-(2,2,2-trifluoroethyl)-1H-indol-2-yl)-1,2,4-oxadiazol-5-yl]methyl)-5-[1-(methoxymethyl)cyclopropyl]thiophene-2-carboxamide] | * (* = 0 μM ≤ SC150 < 0.1 μM)
22 | COCC1(n2ccc(C(=O)NCc3nc(-c4cc5c(N[C@@H]6CCN(C)C[C@@H]6C)cccc5n4CC(F)(F)F)no3)c2)CC1 [Compound 504B, N-{[3-(4-{[(3S,4R)-1,3-dimethylpiperidin-4-yl]amino}-1-(2,2,2-trifluoroethyl)-1H-indol-2-yl)-1,2,4-oxadiazol-5-yl]methyl}-1-[1-(methoxymethyl)cyclopropyl]-1H-pyrrole-3-carboxamide] | * (* = 0 μM ≤ SC150 < 0.1 μM)
